In ChEMBL document CHEMBL3352631, “The identification of 7-[(R)-2-((1S,2S)-2-benzyloxycyclopentylamino)-1-hydroxyethyl]-4-hydroxybenzothiazolone as an inhaled long-acting β2-adrenoceptor agonist” (Bioorg Med Chem Lett, 2014) one finds chromatographic logD and Vdss data, which are given here for 2 compounds.

Data set [1] can be described thus: Lipophilicity, logD of the compound at pH 7.4 by chromatographic method. It is filed as physicochemical. The conditions noted are these: buffer.
The test system of data set [2] is Rattus norvegicus. In words: Volume of distribution at steady state in rat at 2.1 umol/kg, iv. The format is ADME, organism-based. The conditions noted are these: in vivo.
In data set [3] the test system is Rattus norvegicus. As to the kind of experiment: Volume of distribution at steady state in rat at 5 umol/kg, iv. The conditions noted are these: in vivo. It is filed as ADME, organism-based.

For the compound `O=c1[nH]c2c(O)ccc([C@@H](O)CN[C@H]3CCC[C@@H]3OCc3ccccc3)c2s1`, the chromatographic logD in data set [1] worked out at 1.25. In addition, the Vdss in the data set with Rattus norvegicus [2] was found to be 6.2 mL/min/kg.

In the data set with Rattus norvegicus [3], `CCc1cc2c(cc1CC)CC(NC[C@H](O)c1ccc(O)c3[nH]c(=O)ccc13)C2` [INDACATEROL] had a Vdss of 4.1 mL/min/kg. In data set [1], this compound returned a chromatographic logD of 1.77.
